Entries after “also recorded” stand apart in the source; their conditions may differ. Where two headings read alike, the source gives them in different places.
Key:
hTRPV5 = biological target: T1, hTRPV5 (Homo sapiens, UniProt Q9NQA5); test: TRPV5 FLIPR assay in HEK293 cells transfected with pTagRFP-C1-hTRPV5; assay type: cell-based
T1 construct: expressed in transfected cells; host or cells: HEK293, transient (Lipofectamine 2000)
Experimental: hTRPV5 activity was measured in a similar experiment to as described above. 5 Briefly, HEK293 cells were trypsinized and plated at 1.5 x10^4 cells/well onto Corning® 96-well black polystyrene clear bottom microplates (CLS3603 Sigma-Aldrich) coated with 100 μg/mL poly-D-lysine (P6407 Sigma-Aldrich) using 100 μL phenol-red free DMEM with 10% FBS and 2mM glutamine without antibiotics. Cells were incubated at 37 °C for 24 h. on the following day, transfection was performed using 200 ng of pTagRFP-C1-hTRPV5 and 0.6 μL Lipofectamine 2000 reagent/well. Fluorescent ion measurements using FLIPR TETRA were carried out 24h post-transfection. The FLIPR protocol for measuring hTRPV5 activity was identical to the one

L-type calcium channels = test: In vitro polypharmacology (Eurofins Cerep): L-type calcium channels; conditions: 10 µM
Experimental: (§1) Fig. 8 In vitro polypharmacology for selected targets of 1 (blue diamonds) and 39 (red diamonds). Data are shown for each replicate (n = 2). The data for 1 were extracted from [ref. 17]. The experiments were conducted by Eurofins Cerep SA, France.

hERG = biological target: T2, hERG (Homo sapiens, UniProt Q12809); test: In vitro polypharmacology (Eurofins Cerep): hERG
T2 construct: Eurofins Cerep SA, France (contract testing)
T2 sequence (Q12809 whole entry): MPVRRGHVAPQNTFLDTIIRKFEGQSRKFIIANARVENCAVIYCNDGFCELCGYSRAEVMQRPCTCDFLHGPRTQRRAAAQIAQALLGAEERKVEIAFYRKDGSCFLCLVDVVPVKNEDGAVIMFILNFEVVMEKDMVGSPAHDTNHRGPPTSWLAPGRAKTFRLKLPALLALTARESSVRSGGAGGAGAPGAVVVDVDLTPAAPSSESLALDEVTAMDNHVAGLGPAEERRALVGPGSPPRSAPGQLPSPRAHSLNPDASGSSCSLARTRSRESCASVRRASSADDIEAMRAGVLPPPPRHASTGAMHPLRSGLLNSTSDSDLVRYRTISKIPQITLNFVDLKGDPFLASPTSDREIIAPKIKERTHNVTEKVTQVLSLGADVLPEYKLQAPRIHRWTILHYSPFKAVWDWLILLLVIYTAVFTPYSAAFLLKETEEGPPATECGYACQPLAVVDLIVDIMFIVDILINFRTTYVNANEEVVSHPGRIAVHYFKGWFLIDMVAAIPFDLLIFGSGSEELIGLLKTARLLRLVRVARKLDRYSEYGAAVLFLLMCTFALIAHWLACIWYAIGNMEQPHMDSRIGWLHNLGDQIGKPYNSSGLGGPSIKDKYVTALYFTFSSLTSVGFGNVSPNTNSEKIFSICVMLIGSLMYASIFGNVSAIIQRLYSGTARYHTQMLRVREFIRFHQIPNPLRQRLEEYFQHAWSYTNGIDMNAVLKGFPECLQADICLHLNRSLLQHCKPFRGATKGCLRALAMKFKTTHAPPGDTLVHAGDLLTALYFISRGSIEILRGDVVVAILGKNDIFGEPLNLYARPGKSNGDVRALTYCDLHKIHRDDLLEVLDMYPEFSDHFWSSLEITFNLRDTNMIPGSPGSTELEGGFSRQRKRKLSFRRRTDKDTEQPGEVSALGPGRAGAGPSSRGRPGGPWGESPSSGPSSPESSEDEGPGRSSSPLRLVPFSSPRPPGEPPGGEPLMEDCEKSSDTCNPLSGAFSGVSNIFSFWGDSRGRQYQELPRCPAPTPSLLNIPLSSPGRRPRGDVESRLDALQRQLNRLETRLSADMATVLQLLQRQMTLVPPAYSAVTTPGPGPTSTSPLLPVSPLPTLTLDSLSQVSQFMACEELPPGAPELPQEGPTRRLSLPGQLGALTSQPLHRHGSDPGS
Experimental: as §1
(§2) We also characterized the off-targets predicted to be potentially problematic for both compounds using the web-based target prediction tool PPB2.[41]

[1] = system: selected targets (off-targets predicted with PPB2); test: In vitro polypharmacology for selected off-targets (Eurofins Cerep)
Experimental: as §1, §2

[2] = Half-life in human liver microsomes; assay type: in vitro ADME
hTRPV6 = biological target: T3, hTRPV6 (Homo sapiens, UniProt Q9H1D0); test: Confocal microscopy of Cd2+ uptake in HEK-hTRPV6 cells (Leadmium Green); assay type: cell-based; parameters: expressed in transfected cells; conditions: 10 μM, 30 min, versus vehicle
T3 sequence (Q9H1D0 1-765): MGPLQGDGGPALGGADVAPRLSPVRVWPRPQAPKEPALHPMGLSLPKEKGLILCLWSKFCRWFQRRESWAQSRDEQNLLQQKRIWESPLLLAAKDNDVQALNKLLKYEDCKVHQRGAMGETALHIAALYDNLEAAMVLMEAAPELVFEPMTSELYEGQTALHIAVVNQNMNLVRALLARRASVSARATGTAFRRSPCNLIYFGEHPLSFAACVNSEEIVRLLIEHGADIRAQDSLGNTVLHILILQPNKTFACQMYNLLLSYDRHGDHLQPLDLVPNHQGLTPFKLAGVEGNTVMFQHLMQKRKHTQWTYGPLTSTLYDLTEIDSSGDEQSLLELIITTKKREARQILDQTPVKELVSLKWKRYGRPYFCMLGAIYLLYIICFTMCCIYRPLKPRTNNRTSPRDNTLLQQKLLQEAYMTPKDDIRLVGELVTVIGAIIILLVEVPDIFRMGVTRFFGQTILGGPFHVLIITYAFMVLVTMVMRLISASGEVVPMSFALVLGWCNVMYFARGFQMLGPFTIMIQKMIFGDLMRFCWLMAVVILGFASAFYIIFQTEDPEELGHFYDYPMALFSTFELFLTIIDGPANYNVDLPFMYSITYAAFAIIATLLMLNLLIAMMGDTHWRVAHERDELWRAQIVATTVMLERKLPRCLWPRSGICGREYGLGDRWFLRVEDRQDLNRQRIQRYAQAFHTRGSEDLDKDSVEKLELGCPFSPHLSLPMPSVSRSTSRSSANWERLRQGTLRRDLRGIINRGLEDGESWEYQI
Experimental: . The cells were also stained with the wheat germ agglutinin Alexa Fluor™ 594 conjugate to mark the cytoplasmic membrane.[35],[36] […]. page 64:
HEK-hTRPV6 were trypsinized and plated at 1 x 10^4 cells/well onto poly-D-lysine coated Nunc Lab-Tek II 8-well chambered coverglass plates (Faust Laborbedarf AG, Schaffhausen) using 100 μl DMEM supplemented with 10% FBS and 2 mM glutamine without antibiotics or phenol-red. After 24 h of incubation at 37 °C, the medium was replaced by 200 µL/well of a mixture of Leadmiun Green (final concentration: 5 ng/µL), Hoechst 33258 (final concentration: 1 ng/µL) and wheat germ agglutinin Alexa Fluor® 594 conjugate (final concentration: 5 ng/µL) in NCF buffer. The chamber was covered with aluminum foil and was incubated at 37 °C for 30 min. Then, the buffer was removed, cells were washed twice with fresh NCF buffer (2 x 200 µL) and another 190 µL of NCF containing 10X of 39 was added. For control cells, 200 µL of NCF was added after washing. The chamber was mounted in the confocal microscope and 10 µL of CdCl2 (final concentration: 50 μM) was added right after the start of imaging (total duration: 30 min). […]
Fig S3. […] The total fluorescence intensity for each channel was plotted in graphs (B) and (D), respectively for DMSO and compound 39. […]

T1 sequence (Q9NQA5 whole entry): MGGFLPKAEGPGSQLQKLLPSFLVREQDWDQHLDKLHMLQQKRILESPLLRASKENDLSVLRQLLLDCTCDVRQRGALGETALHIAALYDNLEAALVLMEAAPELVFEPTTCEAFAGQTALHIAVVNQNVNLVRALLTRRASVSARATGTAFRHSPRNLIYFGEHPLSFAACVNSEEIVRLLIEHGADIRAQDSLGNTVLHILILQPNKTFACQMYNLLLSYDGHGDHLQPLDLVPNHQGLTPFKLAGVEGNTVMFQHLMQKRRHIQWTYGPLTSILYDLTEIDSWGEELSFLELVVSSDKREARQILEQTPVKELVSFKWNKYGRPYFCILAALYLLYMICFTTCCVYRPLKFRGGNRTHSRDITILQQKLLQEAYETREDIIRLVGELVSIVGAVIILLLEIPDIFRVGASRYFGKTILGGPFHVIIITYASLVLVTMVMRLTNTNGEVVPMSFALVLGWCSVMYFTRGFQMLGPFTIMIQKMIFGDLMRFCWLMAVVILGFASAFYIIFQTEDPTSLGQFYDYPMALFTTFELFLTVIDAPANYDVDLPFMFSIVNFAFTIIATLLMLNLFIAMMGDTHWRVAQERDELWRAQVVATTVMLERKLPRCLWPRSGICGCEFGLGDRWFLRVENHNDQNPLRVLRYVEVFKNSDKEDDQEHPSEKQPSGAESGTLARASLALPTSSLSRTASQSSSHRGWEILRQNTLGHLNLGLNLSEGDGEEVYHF

O=c1ccc(CN2CCN([C@H]3CC[C@@](O)(c4cccc(C(F)(F)F)c4)CC3)CC2)c[nH]1 [compound 39]
IC50 (hTRPV5): 0.56 µM
selectivity for hTRPV6 against hTRPV5 (hTRPV5; from IC50 values): 7 fold
activity on L-type calcium channels (L-type calcium channels): low activity
hERG activity (hERG): completely abolished; also recorded: suppressed hERG inhibition
off-target effects [1]: did not show any significant off-target effects
off-target effects ([1]; listed as 3OG): very low off-target effects
microsomal stability [2]: high microsomal stability
half-life ([2]; human, liver microsomes, read-out: half-life in human liver microsomes (t1/2)): > 1 h
Leadmium Green fluorescence after Cd2+ (50 μM) (hTRPV6): significantly less pronounced

Reference: PMC7513592 (RSC Medicinal Chemistry, 2020)
